Results on four compounds are retold here after PMC8624485, “Modeling, Synthesis, and Biological Evaluation of Potential Retinoid-X-Receptor (RXR) Selective Agonists: Analogs of 4-[1-(3,5,5,8,8-Pentamethyl-5,6,7,8-tetrahyro-2-naphthyl)ethynyl]benzoic Acid (Bexarotene) and 6-(Ethyl(4-isobutoxy-3-isopropylphenyl)amino)nicotinic Acid (NEt-4IB)” (International Journal of Molecular Sciences, 2021).

Each structure is given as a SMILES string.

What all share (type): cell-based
In series [1] the target is T1, RXR-LXR heterodimer (LXR/LXRE) (Homo sapiens, UniProt P19793).
T1 construct: expressed in transfected cells; host or cells: HEK293 cells
T1 sequence (P19793 1-462): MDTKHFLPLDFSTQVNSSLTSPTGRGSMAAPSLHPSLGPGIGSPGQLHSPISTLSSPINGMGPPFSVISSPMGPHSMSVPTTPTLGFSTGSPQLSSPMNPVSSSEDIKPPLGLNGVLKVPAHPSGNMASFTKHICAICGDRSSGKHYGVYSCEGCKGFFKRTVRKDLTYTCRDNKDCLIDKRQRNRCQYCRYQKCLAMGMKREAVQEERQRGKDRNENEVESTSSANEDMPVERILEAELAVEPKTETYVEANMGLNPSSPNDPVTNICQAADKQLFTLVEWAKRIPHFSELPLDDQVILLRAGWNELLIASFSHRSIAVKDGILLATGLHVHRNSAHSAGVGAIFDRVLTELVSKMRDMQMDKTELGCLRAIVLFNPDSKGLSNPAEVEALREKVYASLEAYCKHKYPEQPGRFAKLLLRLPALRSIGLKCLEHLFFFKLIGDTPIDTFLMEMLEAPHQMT
T1 sequence (Q13133 1-447 partner): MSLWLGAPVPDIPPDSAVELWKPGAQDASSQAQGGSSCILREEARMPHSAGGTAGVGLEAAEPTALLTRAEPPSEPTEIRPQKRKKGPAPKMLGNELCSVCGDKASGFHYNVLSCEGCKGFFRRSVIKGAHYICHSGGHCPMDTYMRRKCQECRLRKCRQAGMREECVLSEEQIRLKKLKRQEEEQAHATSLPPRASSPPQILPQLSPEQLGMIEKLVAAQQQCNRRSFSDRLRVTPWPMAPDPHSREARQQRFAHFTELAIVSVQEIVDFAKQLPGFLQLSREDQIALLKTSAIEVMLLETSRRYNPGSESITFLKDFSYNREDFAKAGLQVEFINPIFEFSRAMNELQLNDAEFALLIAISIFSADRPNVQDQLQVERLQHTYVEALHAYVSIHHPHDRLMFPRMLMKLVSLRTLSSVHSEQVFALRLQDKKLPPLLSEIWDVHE
The series is described as follows: LXRE-luciferase transactivation assay in HEK293 cells. The note with it: for LXRE Activity (% of Bex): 100 nM compound alone, HEK293, bexarotene (1) set to 100%; for LHS Score (vs. Bex): LXRE Heterodimer Specificity: LXRE:RXRE activity ratio, compound 1 set to 1.0. The protocol: The activation from this natural LXRE in our system was tested in the presence of either 100 nM RXR agonists alone or in combination with 100 nM of both the RXR agonist and LXR agonist T0901317 (TO). […] The LXRE-mediated assays were performed using human embryonic cells (HEK293) seeded at a density of 60,000 cells/well in a 24-well plate and maintained in DMEM (Hyclone) supplemented with 10% fetal bovine serum, 100 µg/mL streptomycin, 100 U/mL penicillin (Invitrogen, Carlsbad, CA, USA) at 37 degrees Celsius, 5% CO2 for 24 h. The cells were co-transfected with 250 ng of an LXRE-luciferase reporter gene, 50 ng of pSG5-human RXRα, and 20 ng of renilla control plasmid. […] After 24 h post treatment, the cells were lysed and the transcriptional activity mediated by the LXRE was measured using the Dual Luciferase Assay System (Promega, Madison, WI) in a Sirius FB12 luminometer (Berthold Detection Systems, Pforzheim, Germany) according to the manufacturer’s protocol. The data are a compilation of between three and six independent assays with each treatment group dosed in triplicate for each independent assay. […] Bars on all graphs indicate standard deviation of the replicate experiments.
Cells were transfected for 24 h utilizing a liposome-mediated transfection protocol and then treated with the ethanol vehicle, or 100 nM of the indicated compound alone or in combination with 100 nM TO901317 (TO). […] (A) Human HEK-293 cells were transfected and treated as described in Figure 8.

The target of series [2] is T2, RXRα (Homo sapiens, UniProt P19793).
T2 construct: expressed in transfected cells; host or cells: UAS-GFP x KMT2A-MLLT3 cells (retroviral transduction)
T2 sequence (P19793 227-458 limits assumed): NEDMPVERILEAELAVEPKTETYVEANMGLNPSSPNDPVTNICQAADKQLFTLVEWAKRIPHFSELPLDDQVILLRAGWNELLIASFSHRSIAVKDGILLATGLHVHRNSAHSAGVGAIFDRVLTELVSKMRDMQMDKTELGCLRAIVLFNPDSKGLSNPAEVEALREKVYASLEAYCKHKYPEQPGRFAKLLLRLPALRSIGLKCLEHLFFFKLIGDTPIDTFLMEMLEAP
As to the kind of experiment: UAS/Gal4 GFP reporter assay of RXRα activation in UAS-GFP x KMT2A-MLLT3 cells. Conditions: RXRα activation; value (SD); Table 1 does not say whether GFP or Luc assay; read-out: EC50 (nM) +/−(SD). The protocol: Cells were treated, and after 48 h, GFP measured by a ZE5 Flow Cytometer (Biorad).
Background: Reporter assays use an easily measured gene product as a stand-in for the process of interest.

In series [3] the target is T3, human RARα (Homo sapiens, UniProt P10276).
T3 construct: expressed in transfected cells; host or cells: HEK293 cells
T3 sequence (P10276 1-462): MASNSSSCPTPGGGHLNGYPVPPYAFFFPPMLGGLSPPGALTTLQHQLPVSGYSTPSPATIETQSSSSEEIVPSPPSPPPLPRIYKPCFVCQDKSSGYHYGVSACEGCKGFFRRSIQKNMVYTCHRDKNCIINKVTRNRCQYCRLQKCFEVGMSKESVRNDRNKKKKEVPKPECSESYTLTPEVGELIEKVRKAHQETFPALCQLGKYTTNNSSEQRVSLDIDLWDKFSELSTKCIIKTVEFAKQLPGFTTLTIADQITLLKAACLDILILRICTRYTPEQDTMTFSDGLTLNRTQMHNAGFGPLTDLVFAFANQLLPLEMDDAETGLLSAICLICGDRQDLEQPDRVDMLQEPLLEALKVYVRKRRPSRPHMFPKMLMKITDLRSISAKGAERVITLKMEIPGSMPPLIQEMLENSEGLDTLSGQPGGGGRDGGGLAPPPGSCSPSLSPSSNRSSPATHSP
The series is described as follows: RARE-luciferase reporter assay in HEK293 cells. Conditions: HEK293, all-trans-RA set to 100%. The method, then:
Human embryonic kidney cells (HEK293) were plated at 60,000 cells per well in a 24-well plate and maintained as described above. After 24 h, the cells were transfected with 250 ng pTK-DR5(X2)-Luc, 25 ng pCMX-human RARα, and 20 ng renilla utilizing 1.25 µL polyethylenimine (PEI) per well for 24 h. The sequence of the double DR5 RARE is: 5′-[…]-3′ (DR5 responsive elements underlined). The cells were treated with ethanol vehicle (0.1%), all-trans-retinoic acid (RA, the ligand for RAR), or the indicated rexinoid at a final concentration of 10 nM. After 24 h of treatment, the retinoid activity was measured as described above (dual luciferase assay). […] Three independent assays were conducted with triplicate samples for each treatment group. The value for RA was set to 100%. […]

The test system of series [4] is Saccharomyces cerevisiae. As to the kind of experiment: Saccharomyces cerevisiae toxicity assay. Conditions: 3 h incubation, colony count vs DMSO only control; highest concentration tested 11 µg/µL. The method, then:
These compounds were also assessed for mutagenicity and toxicity in Saccharomyces cerevisiae and the toxicity results are summarized in Table 1. No compound was mutagenic in this assay.
All compounds were tested for toxicity and mutagenicity using a Saccharomyces cerevisiae based assay as described previously. Toxicity was assessed in this assay (Table 1), comparing growth on plates to control treatments. Compounds were solubilized in DMSO at increasing concentrations and cells were incubated with the compounds for 3 h before plating on selective media or YPD to assess toxicity and mutagenicity. Cytotoxicity was assessed as described. Growth of colonies on the full nutrient YPD plate for each treatment was compared to the DMSO only control. The concentration at which 50% cell death (as indicated by colony count compared to DMSO only control) +/−10% cell death is reported as the 50% killing rate. The highest concentration tested was 11 µg/µL.

Series [5] concerns the target T4, RXRA (Homo sapiens, UniProt P19793).
T4 construct: expressed in transfected cells; host or cells: 293T cells
T4 sequence (P19793 1-462): T1 sequence (P19793 1-462)
As to the kind of experiment: ApoA1-Luc luciferase assay in 293T cells with pBABE-RXRA. Conditions: pBABE-RXRA and ApoA1-Luc, nonconverged, read-out: EC50 (nM), luciferase (Figure 7C). The protocol:
293T cells were transfected using Lipofectamine 2000 (Invitrogen). Six hours after transfection, the cells were collected and plated into a 48-well plate in 1% BSA media in triplicate and treated with compounds. After 40 h incubation, the cells were harvested and assayed for luciferase (Luc Assay System with Reporter Lysis Buffer, Promega) in a Beckman Coulter LD400 plate reader.

For `CCN(c1ccc(C(=O)O)c(F)c1)c1ccc(OCC(C)C)c(C(C)C)c1` [Compound 29, 4-(ethyl(4-isobutoxy-3-isopropylphenyl)amino)-2-fluorobenzoic acid], the “LXRE Activity (% of Bex)” value in series [1] is recorded as 61.7 % of Bex. Also, the EC50 in series [2] and in series [5] was over 1000 nM throughout. In series [3], the “RARE Activity (%RA at 10 nM)” value is recorded as 4.0 %RA. In series [4], the “Cyto-Toxicity (50% Cell Death)” value came to 1 µg/µL.
As for `CC(C)COc1ccc(-n2nnc3cc(C(=O)O)ccc32)cc1C(C)C` [Compound 31, 1-(4-isobutoxy-3-isopropylphenyl)-1H-benzo[d][1,2,3]triazole-5-carboxylic acid], the “LXRE Activity (% of Bex)” value in series [1] was 64.5 % of Bex. Moreover, the EC50 in series [2] and in series [5] was over 1000 nM each time. Moreover, the “RARE Activity (%RA at 10 nM)” value in series [3] is reported as 3.1 %RA. Further, in series [4], the “Cyto-Toxicity (50% Cell Death)” value was “none”.
Consider `C=C(c1ccc(C(=O)O)c(O)c1)c1cc2c(cc1C)C(C)(C)CCC2(C)C` [Compound 37a, 2-Hydroxy-4-(1-(3,5,5,8,8-pentamethyl-5,6,7,8-tetrahydronaphthalen-2-yl)vinyl)benzoic acid], for which, in series [1], the “LXRE Activity (% of Bex)” value is listed as 91.1 % of Bex and the “LHS Score (vs. Bex)” value is reported as 0.45. In series [2], the EC50 is 24.2 nM. Further, the “RARE Activity (%RA at 10 nM)” value in series [3] came out at 2.9 %RA. Moreover, the “Cyto-Toxicity (50% Cell Death)” value in series [4] is listed as 1 µg/µL.
For `C=C(c1ccc(C(=O)O)c(O)c1)c1ccc2c(c1)C(C)(C)CCC2(C)C` [Compound 37b, 2-Hydroxy-4-(1-(5,5,8,8-tetramethyl-5,6,7,8-tetrahydronaphthalen-2-yl)vinyl)benzoic Acid], in that order: 69.1 % of Bex, 0.91, 413 nM, 5.2 %RA and 0.5 µg/µL.
